Assays:
THR beta-LBD = molecular target: T1, THR beta-LBD (Homo sapiens, UniProt P10828); test: THR-β Coactivator Peptide Recruitment Assay (LanthaScreen TR-FRET); format: biochemical; conditions: TR-FRET coactivator recruitment, THR beta-LBD 0.5 nM; for EC50: read-out: THRβ EC50
T1 construct: THR beta-LBD (the final concentration is 0.5 nM) was added to the 384-well assay plate; purchased Invitrogen PV4686
T1 sequence (P10828 217-461 limits assumed): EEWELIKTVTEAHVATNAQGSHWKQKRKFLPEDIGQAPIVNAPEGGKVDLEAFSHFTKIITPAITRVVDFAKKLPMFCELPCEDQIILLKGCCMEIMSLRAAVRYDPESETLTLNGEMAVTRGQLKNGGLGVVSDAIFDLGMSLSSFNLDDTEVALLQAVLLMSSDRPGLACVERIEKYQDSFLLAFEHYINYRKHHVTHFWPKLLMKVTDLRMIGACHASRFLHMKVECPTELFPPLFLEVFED
In short: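 Agonist-driven coactivator recruitment read as a 520/495 nm TR-FRET emission ratio after 2 h at room temperature. Final concentrations: THR beta-LBD 0.5 nM, fluorescein-SRC2-2 peptide 0.1 nM, terbium anti-GST antibody 2 nM. EC50 from four-parameter dose-response fitting.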

THR alpha-LBD = molecular target: T2, THR alpha-LBD (Homo sapiens, UniProt P10827); test: THR-α Coactivator Peptide Recruitment Assay (LanthaScreen TR-FRET); format: biochemical; conditions: TR-FRET coactivator recruitment, THR alpha-LBD 0.25 nM; for EC50: read-out: THRα EC50
T2 construct: except that THR alpha-LBD of a final concentration 0.25 nM was used; purchased Invitrogen PV4687
In short: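 TR-FRET coactivator recruitment with THR alpha-LBD at 0.25 nM final, Fluorescein-SRC2-2 peptide 0.1 nM and Tb-labeled anti-GST antibody 2 nM; 2 h incubation at room temperature. 520/495 nm emission ratio fitted to a four-parameter sigmoidal curve to give EC50.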

T2 sequence (P10827 163-410 isoform P10827-2 limits assumed, other chains not shown): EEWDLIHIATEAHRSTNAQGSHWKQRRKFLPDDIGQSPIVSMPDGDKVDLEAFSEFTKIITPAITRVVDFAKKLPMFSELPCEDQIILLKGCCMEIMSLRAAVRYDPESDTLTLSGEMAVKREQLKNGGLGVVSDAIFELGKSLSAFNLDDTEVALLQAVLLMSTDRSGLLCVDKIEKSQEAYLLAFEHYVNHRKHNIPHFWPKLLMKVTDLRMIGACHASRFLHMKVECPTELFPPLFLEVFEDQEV

| Structure (SMILES) | THRβ Emax (THR beta-LBD) | EC50 (THR beta-LBD) [nM] | THRα Emax (THR alpha-LBD) | EC50 (THR alpha-LBD) [nM] |
| --- | --- | --- | --- | --- |
| N#Cc1nn(-c2cc(Cl)c(Oc3cc(S(=O)(=O)NC4CCC4)c(O)cn3)c(Cl)c2)c(=O)[nH]c1=O [Compound 150] | A (90~110) | 2 to 20 | A (85~110) | 2 to 200 |
| CCS(=O)(=O)c1cc(Oc2c(Cl)cc(-n3nc(C(F)F)c(=O)[nH]c3=O)cc2Cl)ncc1O [Compound 151, 2-[3,5-dichloro-4-[(4-ethylsulfonyl-5-hydroxy-2-pyridyl)oxy]phenyl]-6-(difluoromethyl)-1,2,4-triazine-3,5-dione] | A (90~110) | < 2 | A (85~110) | 2 to 200 |
| O=c1[nH]c(=O)n(-c2cc(Cl)c(Cc3ccc(O)c(S(=O)(=O)NC4CS(=O)(=O)C4)c3)c(Cl)c2)nc1C(F)F [Compound 152, 5-[[2,6-dichloro-4-[6-(difluoromethyl)-3,5-dioxo-1,2,4-triazin-2-yl]phenyl]methyl]-N-(1,1-dioxothietan-3-yl)-2-hydroxy-benzenesulfonamide] | A (90~110) | < 2 | A (85~110) | < 2 |
| O=c1[nH]c(=O)n(-c2cc(Cl)c(Oc3cc(S(=O)(=O)C4CCC4)c(O)cn3)c(Cl)c2)nc1C(F)F [Compound 153, 2-[3,5-dichloro-4-[(4-cyclobutylsulfonyl-5-hydroxy-2-pyridyl)-oxy]phenyl]-6-(difluoromethyl)-1,2,4-triazine-3,5-dione] | A (90~110) | < 2 | A (85~110) | 2 to 200 |
| CS(=O)(=O)Cc1cc(Oc2c(Cl)cc(-n3nc(C(F)F)c(=O)[nH]c3=O)cc2Cl)ncc1O [Compound 154, 2-[3,5-dichloro-4-[[5-hydroxy-4-(methylsulfonylmethyl)-2-pyridyl]oxy]phenyl]-6-(difluoromethyl)-1,2,4-triazine-3,5-dione] | B (75~90) | 2 to 20 | B (40~85) | 200 to 1000 |
| O=c1[nH]c(=O)n(-c2cc(Cl)c(Cc3cc(S(=O)(=O)N[C@H]4C[C@H](O)C4)c(O)cn3)c(Cl)c2)nc1C(F)F [Compound 156, 2-(2,6-dichloro-4-(6-(difluoromethyl)-3,5-dioxo-4,5-dihydro-1,2,4-triazin-2 (3H)-yl)benzyl)-5-hydroxy-N-((1r,3r)-3-hydroxycyclobutyl)pyridine-4-sulfonamide] | A (90~110) | 2 to 20 | B (40~85) | > 1000 |
| O=c1[nH]c(=O)n(-c2cc(Cl)c(Oc3cc(S(=O)(=O)NC4COC4)c(O)cn3)c(Cl)c2)nc1C(F)F [Compound 158, 2-(2,6-dichloro-4-(6-(difluoromethyl)-3,5-dioxo-4,5-dihydro-1,2,4-triazin-2(3H)-yl)phenoxy)-5-hydroxy-N-(oxetan-3-yl)pyridine-4-sulfonamide] | A (90~110) | < 2 | A (85~110) | 2 to 200 |
| O=c1[nH]c(=O)n(-c2cc(Cl)c(Oc3cc(S(=O)(=O)NC45CCC(O)(C4)C5)c(O)cn3)c(Cl)c2)nc1C(F)F [Compound 159, 2-(2,6-dichloro-4-(6-(difluoromethyl)-3,5-dioxo-4,5-dihydro-1,2,4-triazin-2(3H)-yl)phenoxy)-5-hydroxy-N-(4-hydroxybicyclo[2.1.1]hexan-1-yl)pyridine-4-sulfonamide] | B (75~90) | 20 to 100 | B (40~85) | 200 to 1000 |
| O=c1[nH]c(=O)n(-c2cc(Cl)c(Oc3cc(S(=O)(=O)NC45CCC(O)(CC4)C5)c(O)cn3)c(Cl)c2)nc1C(F)F [Compound 160, 2-(2,6-dichloro-4-(6-(difluoromethyl)-3,5-dioxo-4,5-dihydro-1,2,4-triazin-2(3H)-yl)phenoxy)-5-hydroxy-N-(4-hydroxybicyclo[2.2.1]heptan-1-yl)pyridine-4-sulfonamide] | B (75~90) | 20 to 100 | B (40~85) | > 1000 |
| Cc1nn(-c2cc(Cl)c(Oc3cc(S(=O)(=O)N[C@H]4C[C@H](O)C4)c(O)cn3)c(Cl)c2)c(=O)[nH]c1=O [Compound 161, 2-(2,6-dichloro-4-(6-methyl-3,5-dioxo-4,5-dihydro-1,2,4-triazin-2(3H)-yl)phenoxy)-5-hydroxy-N-((1r,3r)-3-hydroxycyclobutyl)pyridine-4-sulfonamide] | B (75~90) | 20 to 100 | B (40~85) | 200 to 1000 |
| Cc1nn(-c2cc(Cl)c(Oc3cc(S(=O)(=O)N[C@H]4C[C@@H](O)C4)c(O)cn3)c(Cl)c2)c(=O)[nH]c1=O [Compound 162, 2-(2,6-dichloro-4-(6-methyl-3,5-dioxo-4,5-dihydro-1,2,4-triazin-2(3H)-yl)phenoxy)-5-hydroxy-N-((1s,3s)-3-hydroxycyclobutyl)pyridine-4-sulfonamide] | B (75~90) | > 100 | C (<40) | > 1000 |
| Cc1nn(-c2cc(Cl)c(Oc3cc(S(=O)(=O)N[C@@H]4CCOC4)c(O)cn3)c(Cl)c2)c(=O)[nH]c1=O [Compound 163, (R)-2-(2,6-dichloro-4-(6-methyl-3,5-dioxo-4,5-dihydro-1,2,4-triazin-2(3H)-yl)phenoxy)-5-hydroxy-N-(tetrahydrofuran-3-yl)pyridine-4-sulfonamide] | B (75~90) | 20 to 100 | B (40~85) | 200 to 1000 |
| Cc1nn(-c2cc(Cl)c(Oc3cc(S(=O)(=O)N[C@H]4CCOC4)c(O)cn3)c(Cl)c2)c(=O)[nH]c1=O [Compound 164, (S)-2-(2,6-dichloro-4-(6-methyl-3,5-dioxo-4,5-dihydro-1,2,4-triazin-2(3H)-yl)phenoxy)-5-hydroxy-N-(tetrahydrofuran-3-yl)pyridine-4-sulfonamide] | B (75~90) | 20 to 100 | B (40~85) | 200 to 1000 |
| O=c1cnn(-c2cc(Cl)c(Oc3cc(S(=O)(=O)N[C@H]4C[C@H](O)C4)c(O)cn3)c(Cl)c2)c(=O)[nH]1 [Compound 165, 2-(2,6-dichloro-4-(3,5-dioxo-4,5-dihydro-1,2,4-triazin-2(3H)-yl)phenoxy)-5-hydroxy-N-((1r,3r)-3-hydroxycyclobutyl)pyridine-4-sulfonamide] | C (<75) | 20 to 100 | B (40~85) | > 1000 |
| Cc1cc(-n2nc(C(F)F)c(=O)[nH]c2=O)cc(C)c1Oc1cc(S(=O)(=O)N[C@H]2C[C@H](O)C2)c(O)cn1 [Compound 166, 2-[4-[6-(difluoromethyl)-3,5-dioxo-1,2,4-triazin-2-yl]-2,6-dimethyl-phenoxy]-5-hydroxy-N-(3-hydroxycyclobutyl)pyridine-4-sulfonamide] | B (75~90) | > 100 | B (40~85) | > 1000 |
| Cc1cc(-n2nc(C(F)F)c(=O)[nH]c2=O)cc(Cl)c1Oc1cc(S(=O)(=O)N[C@H]2C[C@H](O)C2)c(O)cn1 [Compound 167, 2-[2-chloro-4-[6-(difluoromethyl)-3,5-dioxo-1,2,4-triazin-2-yl]-6-methyl-phenoxy]-5-hydroxy-N-(3-hydroxycyclobutyl)pyridine-4-sulfonamide] | A (90~110) | 2 to 20 | A (85~110) | 200 to 1000 |
